From patent publication US12077503B2, “Substituted cyclic amides and their use as herbicides” (FMC CORPORATION, priority 2015, dated 2024)

Tests used:
Format in all cases: in vivo
[1] = tested on: giant foxtail (Setaria faberii); assay: Test A postemergence; conditions: Setaria faberi, post-emergence, 240 h, Postemergence; for pest or weed control at 125 g/ha: 125 g ai/ha; for pest or weed control at 500 g/ha: 500 g ai/ha, visual injury, 0 to 100 scale (0 no effect, 100 complete control), approx. 10 d
Method in brief: (§1)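 Compounds were formulated in a non-phytotoxic solvent mixture with surfactant and applied as a preemergence directed soil spray after seeding, or sprayed postemergence over plants 2 to 10 cm tall at the one- to two-leaf stage. Evaluation after about 10 d compared treated with untreated controls, using a scale from 0 (no effect) to 100 (complete control).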

[2] = tested on: ryegrass, Italian (Italian ryegrass, Lolium multiflorum); assay: Test A postemergence; conditions: Lolium multiflorum, post-emergence, 240 h, Postemergence; for pest or weed control at 125 g/ha: 125 g ai/ha; for pest or weed control at 500 g/ha: 500 g ai/ha, visual injury, 0 to 100 scale (0 no effect, 100 complete control), approx. 10 d
Method in brief: as §1

[3] = tested on: pigweed (Amaranthus retroflexus); assay: Test A postemergence; conditions: Amaranthus retroflexus, post-emergence, 240 h, Postemergence; for pest or weed control at 125 g/ha: 125 g ai/ha; for pest or weed control at 500 g/ha: 500 g ai/ha, visual injury, 0 to 100 scale (0 no effect, 100 complete control), approx. 10 d
Method in brief: as §1

Kochia (Kochia scoparia) [4] = assay: Test A postemergence; conditions: Bassia scoparia, post-emergence, 240 h, Postemergence; for pest or weed control at 125 g/ha: 125 g ai/ha; for pest or weed control at 500 g/ha: 500 g ai/ha, visual injury, 0 to 100 scale (0 no effect, 100 complete control), approx. 10 d
Method in brief: as §1

[5] = tested on: ducksalad (Heteranthera limosa); assay: Test B flooded paddy test; conditions: Heteranthera limosa, 360 h, Flood, 250 g ai/ha; visually evaluated after 13 to 15 d; read-out: Plant response rating, Ducksalad (0 to 100 scale where 0 is no effect and 100 is complete control)
Method in brief: (§2)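 Evaluation by eye, against controls, occurred 13–15 d post-treatment in a greenhouse, using a 0 (no effect) to 100 (complete control) scale. Application was into the paddy water, 3 cm deep over the soil, on 2-leaf plants.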

rice (Oryra sativa) = assay: Test B flooded paddy test; conditions: Oryza sativa, 360 h, Flood, 250 g ai/ha; visually evaluated after 13 to 15 d; read-out: Plant response rating, Rice (0 to 100 scale where 0 is no effect and 100 is complete control)
Method in brief: as §2

[6] = tested on: barnyardgrass (Echinochloa crus-galli); assay: Test B flooded paddy test; conditions: Echinochloa crus-galli, 360 h, Flood, 250 g ai/ha; visually evaluated after 13 to 15 d; read-out: Plant response rating, Barnyardgrass (0 to 100 scale where 0 is no effect and 100 is complete control)
Method in brief: as §2

[7] = tested on: sedge, umbrella (small-flower umbrella sedge, Cyperus difformis); assay: Test B flooded paddy test; conditions: Cyperus difformis, 360 h, Flood, 250 g ai/ha; visually evaluated after 13 to 15 d; read-out: Plant response rating, Sedge, Umbrella (0 to 100 scale where 0 is no effect and 100 is complete control)
Method in brief: as §2

[8] = tested on: ragweed (common ragweed, Ambrosia elatior); assay: Test A preemergence; conditions: Ambrosia artemisiifolia, pre-emergence, 240 h, 0 to 100 scale (0 no effect, 100 complete control), read-out: Plant response rating, Ragweed; for pest or weed control at 500 g/ha: 500 g ai/ha, preemergence; for pest or weed control at 125 g/ha: Preemergence, 125 g ai/ha
Method in brief: as §1

[9] = tested on: barnyardgrass (Echinochloa crus-galli); assay: Test A preemergence; conditions: Echinochloa crus-galli, pre-emergence, 240 h, 0 to 100 scale (0 no effect, 100 complete control), read-out: Plant response rating, Barnyardgrass; for pest or weed control at 500 g/ha: 500 g ai/ha, preemergence; for pest or weed control at 125 g/ha: Preemergence, 125 g ai/ha
Method in brief: as §1

[10] = tested on: giant foxtail (Setaria faberii); assay: Test A preemergence; conditions: Setaria faberi, pre-emergence, 240 h, 0 to 100 scale (0 no effect, 100 complete control), read-out: Plant response rating, Foxtail, Giant; for pest or weed control at 500 g/ha: 500 g ai/ha, preemergence; for pest or weed control at 125 g/ha: Preemergence, 125 g ai/ha
Method in brief: as §1

[11] = tested on: ryegrass, Italian (Italian ryegrass, Lolium multiflorum); assay: Test A preemergence; conditions: Lolium multiflorum, pre-emergence, 240 h, 0 to 100 scale (0 no effect, 100 complete control), read-out: Plant response rating, Ryegrass, Italian; for pest or weed control at 500 g/ha: 500 g ai/ha, preemergence; for pest or weed control at 125 g/ha: Preemergence, 125 g ai/ha
Method in brief: as §1

[12] = tested on: pigweed (Amaranthus retroflexus); assay: Test A preemergence; conditions: Amaranthus retroflexus, pre-emergence, 240 h, 0 to 100 scale (0 no effect, 100 complete control), read-out: Plant response rating, Pigweed; for pest or weed control at 500 g/ha: 500 g ai/ha, preemergence; for pest or weed control at 125 g/ha: Preemergence, 125 g ai/ha
Kochia (Kochia scoparia) [13] = assay: Test A preemergence; conditions: Bassia scoparia, pre-emergence, 240 h, 0 to 100 scale (0 no effect, 100 complete control), read-out: Plant response rating, Kochia; for pest or weed control at 500 g/ha: 500 g ai/ha, preemergence; for pest or weed control at 125 g/ha: Preemergence, 125 g ai/ha
Method in brief: as §1

[14] = visual rating about 10 d after treatment, read-out: Foxtail, Giant plant response rating (0 to 100 scale)
[15] = read-out: Plant response rating, Foxtail, Giant
[16] = visual rating about 10 d after treatment, read-out: Ryegrass, Italian plant response rating (0 to 100 scale)
[17] = read-out: Plant response rating, Ryegrass, Italian
[18] = visual rating about 10 d after treatment, read-out: Pigweed plant response rating (0 to 100 scale)
[19] = read-out: Plant response rating, Pigweed
[20] = visual rating about 10 d after treatment, read-out: Kochia plant response rating (0 to 100 scale)
[21] = read-out: Plant response rating, Kochia

SMILES	pest or weed control at 500 g/ha [1, 15]	pest or weed control at 500 g/ha [2, 17]	pest or weed control at 500 g/ha [3, 19]	pest or weed control at 500 g/ha (Kochia (Kochia scoparia) [4]; [21])	pest or weed control at 250 g/ha [5]	pest or weed control at 250 g/ha (rice (Oryra sativa))	pest or weed control at 250 g/ha [6]	pest or weed control at 250 g/ha [7]	pest or weed control at 500 g/ha [8]	pest or weed control at 125 g/ha [8]	pest or weed control at 500 g/ha [9]	pest or weed control at 125 g/ha [9]	pest or weed control at 500 g/ha [10]	pest or weed control at 125 g/ha [10]	pest or weed control at 500 g/ha [11]	pest or weed control at 125 g/ha [11]	pest or weed control at 500 g/ha [12]	pest or weed control at 125 g/ha [12]	pest or weed control at 500 g/ha (Kochia (Kochia scoparia) [13])	pest or weed control at 125 g/ha (Kochia (Kochia scoparia) [13])	further results
CN1CC[C@H](c2cccc(C(F)(F)F)c2)[C@@H](C(=O)Nc2ccccc2F)C1=O [Compound 1331]	90%	0%	0%	0%	20%	0%	70%	0%	0%	0%	90%	90%	100%	90%	80%	20%	0%	0%	0%	0%	pest or weed control at 125 g/ha [1, 14]: 90%; pest or weed control at 125 g/ha [2, 16]: 0%; pest or weed control at 125 g/ha [3, 18]: 0%; pest or weed control at 125 g/ha (Kochia (Kochia scoparia) [4]; [20]): 0%
CN1C[C@H](c2ccc(C(F)(F)F)nc2)[C@@H](C(=O)Nc2cccc(F)c2F)C1=O [Compound 1372]	90%	30%	80%	80%	85%	40%	80%	0%	90%	90%	100%	90%	100%	90%	60%	60%	90%	90%	90%	90%	pest or weed control at 125 g/ha [1, 14]: 90%; pest or weed control at 125 g/ha [2, 16]: 20%; pest or weed control at 125 g/ha [3, 18]: 60%; pest or weed control at 125 g/ha (Kochia (Kochia scoparia) [4]; [20]): 70%
CN1C[C@H](c2cc(C(F)(F)F)cs2)[C@@H](C(=O)Nc2cccc(F)c2F)C1=O [Compound 1377]	80%	60%	40%	70%	90%	15%	60%	0%	30%	0%	100%	80%	100%	100%	50%	20%	40%	20%	80%	70%	pest or weed control at 125 g/ha [1, 14]: 80%; pest or weed control at 125 g/ha [2, 16]: 30%; pest or weed control at 125 g/ha [3, 18]: 20%; pest or weed control at 125 g/ha (Kochia (Kochia scoparia) [4]; [20]): 50%
CN1C[C@H](c2ccc(C(F)F)cc2)[C@@H](C(=O)Nc2cccc(F)c2F)C1=O [Compound 1383]	90%	50%	70%	70%	100%	25%	65%	0%	80%	80%	100%	100%	100%	100%	70%	70%	80%	80%	90%	90%	pest or weed control at 125 g/ha [1, 14]: 90%; pest or weed control at 125 g/ha [2, 16]: 40%; pest or weed control at 125 g/ha [3, 18]: 40%; pest or weed control at 125 g/ha (Kochia (Kochia scoparia) [4]; [20]): 70%
O=C1NC[C@H](c2cccc(C(F)(F)F)n2)[C@H]1C(=O)Nc1cccc(F)c1F [Compound 1385]	90%	20%	0%	0%	40%	0%	0%	0%	0%	0%	90%	90%	90%	90%	0%	0%	0%	0%	20%	0%	pest or weed control at 125 g/ha ([1]; visual injury after approx. 10 d, 0 to 100 scale, 0 no effect, 100 complete control, read-out: Plant response rating, Foxtail, Giant): 70%; pest or weed control at 125 g/ha ([2]; visual injury after approx. 10 d, 0 to 100 scale, 0 no effect, 100 complete control, read-out: Plant response rating, Ryegrass, Italian): 0%; pest or weed control at 125 g/ha ([3]; visual injury after approx. 10 d, 0 to 100 scale, 0 no effect, 100 complete control, read-out: Plant response rating, Pigweed): 0%; pest or weed control at 125 g/ha (Kochia (Kochia scoparia) [4]; visual injury after approx. 10 d, 0 to 100 scale, 0 no effect, 100 complete control, read-out: Plant response rating, Kochia): 0%
